What all share (format): cell-based, human
Test [1] has as its system PP2A. In words: PP2A activity assay (immunoprecipitated PP2A, phosphopeptide, Malachite Green). As to conditions: BE(2)-M17 cells exposed to 50 μM 6-OHDA for 2 hours; versus control cells. The method, then:
PP2A activity was measured in control BE(2)-M17 cells at various incubation times (t=0, 1, 2, 5 and 8 hr) after exposure to 50 μM 6-OHDA. […] Control, wild-type, and T123A G-substrate-expressing cells were then exposed to 50 μM 6-OHDA for 2 hours before measurement of PP2A activity.
PP2A activity was measured using a non-radioactive kit according to the manufacturer's instruction (Upstate Biotechnologies, Lake Placid, N.Y.). After 50 μM 6-OHDA exposure with various times, cells were harvested in 20 mM imidazole-HCl, 2 mM EDTA, 2 mM EGTA, pH7 with a protease inhibitor cocktail (Sigma). Protein concentrations of the lysates were measured using BCA assay (Pierce) and 500 μg of protein was immunoprecipitated using an anti-PP2A catalytic subunit antibody and protein A-Sepharose beads. Immunoprecipitated PP2A was then incubated with phosphopeptide (K-R-pT-I-R-R (SEQ ID NO: 8)) for 10 min at 37° C. Dephosphorylation of the phosphopeptide was assayed spectrophotometrically at 650 nm using Malachite Green.

In test [2] the test system is Akt, GSK3β, ERK1/2, p38. In words: Western blot of phosphorylation levels of PP2A targets in BE(2)-M17 cells. The text has this: As described herein, G-substrate overexpression altered the phosphorylation levels of PP2A targets known to play critical roles in cell survival. Akt, GSK3β, and ERK1/2 are known to promote cell survival when phosphorylated (Song et al., J. Cell. Mol. Med. 9: 59-71, 2005; Chen et al., 2004; Ray et al., J. Biol. Chem. 280: 31091-31100, 2005; Tamura et al., FEBS Lett. 569: 249-255, 2004) and phosphorylated p38 is known to mediate cell death in dopaminergic neurons exposed to various toxins including 6-OHDA (Choi et al., J. Biol. Chem. 279: 20451-20460, 2004; Ruano et al., Neurosci. 140: 1157-1168, 2006; Ou et al., Proc. Natl. Acad. Sci. USA 103: 10923-10928, 2006). To test whether changes in phosphorylation levels of these proteins are G-substrate-dependent, both control and G-substrate-expressing cells were exposed to 50 μM 6-OHDA for various durations (t=0, 2, 5 and 10 hr). BE(2)-M17 cells were prepared and cultured as described above. The level of the total and phosphorylated forms of these PP2A substrates was detected by Western blot analysis (FIGS. 7A, 7C, 7E, and 7H).
(§1) Cells and tissue samples were collected from and suspended in lysis buffer containing: 50 mM Tris-HCl, 0.15 M NaCl, 0.32 M sucrose, 1.0 mM EDTA, and 1% NP-40. In addition, phosphatase inhibitors I and II (1:100) and protease inhibitors (1:100) were added fresh prior to cell lysis (Sigma-Aldrich, P2850, P5276, and P8340 respectively). Following cell lysis, the homogenate was centrifuged, a portion of the supernatant was reserved for protein determination (BCA Assay, Pierce, Rockford, Ill.) and the remaining was stored at −20° C. 20 μg (in vitro cell preps) and 50 μg (tissue dissections) of solubilized protein were mixed 1:1 with sample buffer and boiled for 5 min. The samples and molecular weight standards were separated using the Criterion precast 10% SDS-polyacrylamide gel system (Bio-Rad, Hercules, Calif.). After electrophoresis, the proteins were electrically transferred to PVDF membranes at 100 V for 30 min. After transfer, blots were incubated in Tris-buffered saline with 0.1% Tween 20 (TBS-T) containing 5% BSA. Subsequently, blots were incubated with the following antibodies at 4° C. overnight (1:1000 unless otherwise stated): phospho-Akt (ser473), phospho-GSK3β (ser9), phospho-erk1/2, and phospho-p38 (Cell Signaling Technologies, Danvers, Mass.). HRP-conjugated secondary antibodies were then applied and immunoreactive bands were visualized with chemiluminescence (Amersham Biosciences, Arlington Heights, Ill.) and exposed onto film. Immunoblots were then stripped and re-probed for the expression of the total protein (Cell Signaling) and beta-actin (1:10 000) (Abcam) to serve as a loading control. Optical density analysis (NIH image) was used to determine the relative abundance of protein in each sample. The optical densities of the phospho epitopes were standardized to their respective total proteins and this value was used in the statistical analyses.

The subject of test [3] is VMAT2. In words: Western blot of VMAT2 expression in M17 cells.
From the text: BE(2)-M17 cells were used to investigate the interaction between G-substrate and α-synuclein, a known risk factor and possible causative agent in Parkinson's disease. […] Likewise, VMAT2 expression was reduced in naïve M17 cells following the reduction in endogenous G-substrate using siRNA (FIG. 10C).
M17 cells transiently and stably overexpression α-synuclein were transfected using the G-substrate lentiviral vector described above.
The PP2A regulation of VMAT 2 was investigated in M17 cells. PP2A levels were reduced using RNAi. […] The effect of PP2A inhibition was not generalized to other dopaminergic markers tested.
as §1
For orientation: A western blot detects proteins with antibodies after separation by electrophoresis.

As for “G-substrate: human wild type G-substrate (SEQ ID NO.: 1) overexpressed from a lentiviral vector”, the “PP2A activity in G-substrate-expressing cells” value in test [1] was “significant reduction”. Besides, in test [2] (G-substrate overexpression, 50 μM 6-OHDA), the “level of phosphorylated p38” value was “did not alter”. Besides, the “level of pAkt” value in test [2] (G-substrate overexpression, basal and 2, 5 and 10 hours after 50 μM 6-OHDA) was “significant increase”. For the same substance, the “basal level of pGSK3β” value in test [2] (G-substrate-overexpressing cells, basal) was “increased”. The “level of pErk2” value in test [2] (only at 10 hours following 50 μM 6-OHDA, no basal level increase) is reported as “increased”. The “level of pErk1” value in test [2] (similar trend as pErk2, 50 μM 6-OHDA) was “did not reach the statistical significance”. For the same substance, the “VMAT2 expression in α-synuclein overexpressing cells” value in test [3] (M17 cells transiently and stably overexpressing α-synuclein) is recorded as “reversing the α-synuclein-induced loss of VMAT2”. Besides, the VMAT2 expression entry in test [3] (naïve M17 cells) is “significant increase”.

These data come from patent publication US8545834B2, “G-substrate for the treatment and prevention of parkinson's disease” (The McLean Hospital Corporation, priority 2007, dated 2013).
